Earlier results on one sequence are cited in PMC6462165 (International Journal of Nanomedicine, 2019).

For the data set, the system named is endothelial cell proliferation. To be noted: inhibition of endothelial cell proliferation; cited from earlier work.

As to IVRRADRAAVP [ES2], the “activity relative to the ES sequence” value was “about three times more active than the ES sequence”.
